Tests used:
hIDO1 = target: T1, hIDO1 (Homo sapiens, UniProt P14902); test: IDO inhibition activity based on HEK293T cells transfected with hIDO1 plasmid; format: cell-based; details: HEK293T cells transfected with hIDO1, 16 hours incubation, OD 480 nm; read-out: IDO inhibitory activity of HEK293T cells (IC50)
T1 construct: expressed in transfected cells; host or cells: HEK293T (293T) cells, transient transfection with Fugene 6
Protocol: 1. Test Method for IDO Inhibition Activity Based on HEK293T Cells:
The first step: cell transfection and plating. 5×10^6 293T cells were separately seeded in two T75 flasks and incubated overnight at 37° C. in a 5% CO2 incubator. […] of a mixture containing 1.5 μg of hIDO1 plasmid and 300 μL of opti-MEM was made into a mixture A; 18 μL of liposome fugene 6 was mixed with 300 μL of opti-MEM to prepare a mixture B, and allowed to stand at room temperature for 5 minutes. Mixture A and Mix B were mixed, placed at room temperature for 20 minutes, added to a 293T culture flask, and the other flask was used as a control and incubated overnight at 37° C. in a 5% CO2 incubator. The medium was discarded, digested with trypsin, and after digestion, the cells were neutralized with serum-containing medium, and the cells were blown to cause the cells to fall off. Pipette the cell suspension into a centrifuge tube and centrifuge at a speed of 800-1000 for 1-3 minutes. Aspirate the cell supernatant from the centrifuge tube. Add an appropriate volume of medium to the tube and gently blister to resuspend the cells. Count using a Vi-Cell XR cytometer. Adjust the cell suspension to the appropriate concentration. The cell suspension was added to a white-well 96-well plate at 80 μL/well. The second step: preparation and addition of the compound. Compounds were formulated in DMSO at 600 μM and the compounds were diluted in DMSO according to a multiple of the following table to give 6 concentration gradients of the compound. The 200× compound prepared in DMSO was formulated into a 10× dilution solution in proportion to the corresponding cell culture medium. Add 10 μL of 10× corresponding compound dilution and 10 μL of 10×TRP to each well, except for Min. Incubate for 16 hours in a 37° C. incubator. The third step: detection and analysis. Cell morphology was observed under an inverted microscope. 80 μL of the supernatant was added to a 3894 plate, and 10 μL of 6.1 N trichloroacetic acid was added to each well, shaken for 2 minutes, and placed in a 50-degree incubator for 30 minutes. Centrifuged at 2500 rpm for 10 minutes. Take 70 μL of the supernatant and transfer to a 3635 UV plate, add 70 μL of the reaction solution, and shake for 2 minutes to make the reaction uniform. Use EnSpire (PE) to detect data with an OD of 480 nm. The cell culture plate 3903 was allowed to stand at room temperature for 30 minutes. 100 μL/well of the cell activity detecting reagent was added to the culture plate. Mix on a shaker for 2 minutes to induce cell lysis. The 96-well plate was allowed to stand at room temperature for 10 minutes to stabilize the luminescence signal. Paste the white base film on the bottom of the plate and the plate was tested in Flexstation 3 (the relevant setting is: Illumination, integration time 500 ms). Record the experimental results obtained from the analysis.
The IC50 value is expressed by: A: IC50 value≤10 nM; B: 10 nM<IC50 value≤50 nM; C: 50 nM<IC50 value≤100 nM; D: IC50 value>100 nM.

IDO = target: T2, IDO (Homo sapiens, UniProt P14902); test: Hela cell-based IDO inhibitory activity test (IFNγ added); details: Hela cells with IFNγ, 48 hours incubation, OD 480 nm
T2 construct: endogenous in cells; host or cells: HeLa cells treated with IFNγ
Protocol: 2. Hela Cell-Based IDO Inhibitory Activity Test Method
The first step: cell plating. Prepare complete medium and mix well. Cell lines that are in good growth state are selected. Remove the cell culture flask from the incubator and check the cell name, media type and cell generation number on the bottle. The medium was discarded, digested with trypsin, and after digestion, the cells were neutralized with serum-containing medium, and the cells were blown to cause the cells to fall off. Pipette the cell suspension into a centrifuge tube and centrifuge at a speed of 800-1000 for 3-5 minutes. Aspirate the cell supernatant from the centrifuge tube. Add an appropriate volume of medium to the tube and gently blister to resuspend the cells. Count using a Vi-Cell XR cytometer. Adjust the cell suspension to the appropriate concentration. The cell suspension was added to a white-well 96-well plate at 80 μl/well according to the schematic below. The second step: preparation and addition of the compound. Compounds were formulated in DMSO at 600 μM and the compounds were diluted in DMSO according to a multiple of the following table to give 6 concentration gradients of the compound. The 200× compound prepared in DMSO was formulated into a 10× dilution solution in proportion to the corresponding cell culture medium. After 24 hours of cell seeding, 10 μL of 10× corresponding compound dilution and 10 μL of 10×IFNγ were added to each well. Incubate for 48 hours in a 37° C. incubator. The third step: detection and analysis. Cell morphology was observed under an inverted microscope. 80 μL of the supernatant was added to a 3894 plate, 10 μL of 6.1 N trichloroacetic acid was added to each well, shaken for 2 minutes, and placed in a 50-degree incubator for 30 minutes. Centrifuge, 2500 rpm for 10 minutes.
Take 70 μL of the supernatant and transfer to a 3635 UV plate, add 70 μL of the reaction solution, and shake for 2 minutes to make the reaction uniform. Use EnSpire (PE) to detect data with an OD of 480 nm. The cell culture plate 3903 was allowed to stand at room temperature for 30 minutes. 100 μL/well of the cell activity detecting reagent was added to the culture plate. Mix on a shaker for 2 minutes to induce cell lysis. The 96-well plate was allowed to stand at room temperature for 10 minutes to stabilize the luminescence signal. Paste the white base film on the bottom of the plate and tested with Flexstation3 plate (the relevant setting is: Illumination, integration time 500 ms). Record the experimental results obtained from the analysis.
The IC50 value is expressed in the following manner: […]

T1 sequence (P14902 whole entry): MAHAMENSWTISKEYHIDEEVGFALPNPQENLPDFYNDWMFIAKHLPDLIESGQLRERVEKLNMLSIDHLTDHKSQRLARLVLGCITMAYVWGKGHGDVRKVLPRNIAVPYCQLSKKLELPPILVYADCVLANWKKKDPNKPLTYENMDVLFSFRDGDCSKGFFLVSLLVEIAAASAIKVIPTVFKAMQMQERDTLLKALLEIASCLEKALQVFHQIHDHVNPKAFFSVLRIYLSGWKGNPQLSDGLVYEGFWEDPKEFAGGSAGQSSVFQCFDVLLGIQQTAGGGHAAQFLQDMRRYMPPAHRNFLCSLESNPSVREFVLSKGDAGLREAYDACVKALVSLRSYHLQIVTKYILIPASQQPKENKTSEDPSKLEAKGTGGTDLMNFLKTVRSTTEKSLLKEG
T2 sequence (P14902 whole entry): as above

SMILES	IC50 (hIDO1)	IC50 (IDO)
CC(C(=O)Nc1ccc(Cl)cc1)[C@H]1C[C@H]2C[C@@H](c3ccnc4ccc(F)cc34)C[C@H]2C1 (mixture of isomers) [Compound 1]	≤ 10 nM	≤ 5 nM
CC(C(=O)Nc1ccc(Cl)cn1)[C@H]1C[C@H]2CC(c3ccnc4ccc(F)cc34)C[C@H]2C1 (mixture of isomers) [Compound 26]	10 to 50 nM	≤ 5 nM
O=C(CC1=C[C@H]2C[C@@H](c3ccnc4ccc(F)cc34)C[C@H]2C1)Nc1ccc(Cl)cc1 (racemic) [Compound 57]	10 to 50 nM	≤ 5 nM
C[C@@H](C(=O)Nc1ccc(Cl)cc1)[C@H]1C[C@H]2C[C@@H](c3ccnc4ccc(F)cc34)C[C@H]2C1 (single isomer, unassigned) [Compound 1A]	≤ 10 nM	≤ 5 nM
C[C@H](C(=O)Nc1ccc(Cl)cc1)[C@H]1C[C@H]2C[C@@H](c3ccnc4ccc(F)cc34)C[C@H]2C1 (single isomer, unassigned) [Compound 1B]	≤ 10 nM	≤ 5 nM
O=C(C[C@@H]1C[C@@H]2C[C@H](c3ccnc4ccc(F)cc34)C[C@@H]2C1)Nc1ccc(Cl)cc1 [Compound 2]	10 to 50 nM	5 to 25 nM
CC(C(=O)Nc1ccc(Cl)cc1)[C@@H]1C[C@H]2C[C@@H](c3ccnc4ccc(F)cc34)C[C@H]2C1 (stereo partly drawn) [Compound 4]	10 to 50 nM	≤ 5 nM
O=C(C[C@H]1C[C@@H]2C[C@H](c3ccnc4ccc(F)cc34)C[C@@H]2C1)Nc1ccc(Cl)cc1 [Compound 5]	≤ 10 nM	≤ 5 nM
COc1ccc(NC(=O)C(C)[C@H]2C[C@H]3C[C@@H](c4ccnc5ccc(F)cc45)C[C@H]3C2)cn1 (stereo partly drawn) [Compound 6]	10 to 50 nM	5 to 25 nM
CC(C(=O)Nc1cccc(Cl)c1)[C@H]1C[C@H]2C[C@@H](c3ccnc4ccc(F)cc34)C[C@H]2C1 (stereo partly drawn) [Compound 7]	10 to 50 nM	5 to 25 nM
CC(C(=O)Nc1ccc(Cl)cc1)[C@@H]1C[C@@H]2CN(c3ccnc4ccc(F)cc34)C[C@@H]2C1 (stereo partly drawn) [Compound 9]	> 100 nM	> 100 nM
O=C(Cc1ccc(CC(C(=O)Nc2ccc(Cl)cc2)[C@H]2CC[C@@H](c3ccnc4ccc(F)cc43)CC2)cc1)NO (stereo partly drawn) [Compound 10]	> 100 nM	> 100 nM
O=C(C[C@@H]1C[C@@H]2CC(c3ccnc4ccc(F)cc34)=C[C@@H]2C1)Nc1ccc(Cl)cc1 [Compound 11]	10 to 50 nM	≤ 5 nM
O=C(C[C@@H]1C[C@@H]2C[C@H](c3ccnc4ccc(F)cc34)C[C@@H]2C1)NC1CCC(F)(F)CC1 [Compound 12]	> 100 nM	25 to 100 nM
O=C(C[C@@H]1C[C@H]2CC(c3ccnc4ccc(F)cc34)C[C@H]2C1)Nc1ccc(Cl)nc1 (stereo partly drawn) [Compound 22]	10 to 50 nM	5 to 25 nM
CC(C(=O)Nc1ccc(Cl)nc1)[C@H]1C[C@H]2C[C@@H](c3ccnc4ccc(F)cc34)C[C@H]2C1 (stereo partly drawn) [Compound 27]	10 to 50 nM	≤ 5 nM
C#Cc1ccc(NC(=O)C(C)[C@H]2C[C@H]3C[C@@H](c4ccnc5ccc(F)cc45)C[C@H]3C2)cc1 (stereo partly drawn) [Compound 34]	≤ 10 nM	≤ 5 nM
CC(C(=O)Nc1ccc(Cl)cc1)C1=C[C@H]2C[C@@H](c3ccnc4ccc(F)cc34)C[C@H]2C1 (stereo partly drawn) [Compound 38]	≤ 10 nM	≤ 5 nM

SMILES	IC50 (hIDO1)	IC50 (IDO)
CC(C(=O)Nc1ccc(Cl)cc1)[C@@H]1C[C@]2(C)C[C@H](c3ccnc4ccc(F)cc34)C[C@]2(C)C1 (stereo partly drawn) [Compound 40]	10 to 50 nM	≤ 5 nM
CC(C(=O)Nc1ccc(C#CC(C)(C)O)cn1)[C@@H]1C[C@H]2C[C@@H](c3ccnc4ccc(F)cc34)C[C@H]2C1 (stereo partly drawn) [Compound 78]		25 to 100 nM
CC(C(=O)Nc1ccc(C(F)(F)F)nc1)[C@H]1C[C@H]2C[C@@H](c3ccnc4ccc(F)cc34)C[C@H]2C1 (stereo partly drawn) [Compound 80]		≤ 5 nM
CC(C(=O)Nc1ccc(C(F)(F)F)cn1)[C@H]1C[C@H]2C[C@@H](c3ccnc4ccc(F)cc34)C[C@H]2C1 (stereo partly drawn) [Compound 81]		5 to 25 nM
CC#Cc1ccc(NC(=O)C(C)[C@H]2C[C@H]3C[C@@H](c4ccnc5ccc(F)cc45)C[C@H]3C2)nc1 (stereo partly drawn) [Compound 82]		> 100 nM
CC#Cc1ccc(NC(=O)C(C)[C@H]2C[C@H]3C[C@@H](c4ccnc5ccc(F)cc45)C[C@H]3C2)cn1 (stereo partly drawn) [Compound 83]		> 100 nM
CC(C)(C(=O)Nc1ccc(C#N)nc1)[C@H]1C[C@H]2C[C@@H](c3ccnc4ccc(F)cc34)C[C@H]2C1 [Compound 89]		≤ 5 nM
CC#Cc1ccc(NC(=O)C(C)(C)[C@H]2C[C@H]3C[C@@H](c4ccnc5ccc(F)cc45)C[C@H]3C2)cn1 [Compound 91]		≤ 5 nM
C#Cc1ccc(NC(=O)C2([C@H]3C[C@H]4C[C@@H](c5ccnc6ccc(F)cc56)C[C@H]4C3)CC2)cn1 [Compound 97]		5 to 25 nM
N#Cc1ccc(NC(=O)C2([C@H]3C[C@H]4C[C@@H](c5ccnc6ccc(F)cc56)C[C@H]4C3)CC2)nc1 [Compound 98]		≤ 5 nM
CC(C(=O)Nc1ccc(Cl)cn1)N1C[C@H]2C[C@@H](c3ccnc4ccc(F)cc34)C[C@H]2C1 (stereo partly drawn) [Compound 99]		5 to 25 nM
CC(C)(C(=O)Nc1ccc(Cl)cn1)N1C[C@H]2C[C@@H](c3ccnc4ccc(F)cc34)C[C@H]2C1 [Compound 100]		> 100 nM
N#Cc1ccc(NC(=O)C[C@@H]2C[C@@H]3C[C@H](c4ccnc5ccc(F)cc45)C[C@@H]3C2)cn1 [Compound 102]		≤ 5 nM
CC(C)(O)C#Cc1ccc(NC(=O)C[C@@H]2C[C@H]3CC(c4ccnc5ccc(F)cc45)C[C@H]3C2)nc1 (stereo partly drawn) [Compound 103]		> 100 nM
O=C(Nc1ccc(Cl)cn1)C(F)(F)[C@H]1C[C@H]2C[C@@H](c3ccnc4ccc(F)cc34)C[C@H]2C1 [Compound 104]		25 to 100 nM
O=C(Nc1ccc(Cl)cn1)/C(F)=C1/C[C@@H]2C[C@H](c3ccnc4ccc(F)cc34)C[C@@H]2C1 [Compound 105]		> 100 nM
O=C(Nc1ccc(Cl)cc1)O[C@@H]1C[C@@H]2C[C@H](c3ccnc4ccc(F)cc34)C[C@@H]2C1 [Compound 106]		> 100 nM

— patent US11266640B2, “Polycyclic compound acting as IDO inhibitor and/or IDO-HDAC dual inhibitor” (Hangzhou Innogate Pharma Co., Ltd., priority 2017, dated 2022)
